Values of other authors in patent US6511813B1, “Elongation factor P (EFP) and assays and antimicrobial treatments related to the same” (Pharmacia & Upjohn Company, priority 1999, dated 2003).

How the values were obtained:
peptidyltransferase [1] = tested on: peptidyltransferase
[2] = tested on: fMet-tRNAfMet/ribosome translation complex
peptidyltransferase [3] = tested on: peptidyltransferase; remark: listed apart in the source

Row | Molecule | effect on efp reaction (efp) | effect on formation of the fMet-tRNAfMet/ribosome translation complex [2] | effect on the peptide-bond synthesis which occurs in the absence of efp (peptidyltransferase [3]) | other results
1 | CCC[C@@H]1C[C@@H](C(=O)N[C@@H]([C@H]2O[C@H](SC)[C@H](O)[C@@H](O)[C@H]2O)[C@@H](C)O)N(C)C1 [Lincomycin] | nullifies the ability of efp to stimulate synthesis of peptide bonds | – | – | effect on the synthesis of polyphenylalanine (ribosome): marginal effects; effect on the puromycin reaction (peptidyltransferase [1]): inhibits
2 | [H]/N=C(/N)N[C@H]1[C@H](O)[C@@H](O)[C@H](O[C@@H]2O[C@@H](C)[C@](O)(C=O)[C@H]2O[C@@H]2O[C@@H](CO)[C@H](O)[C@@H](O)[C@@H]2NC)[C@@H](N/C(N)=N\[H])[C@@H]1O [Streptomycin] | – | – | – | inhibition of the efp-mediated reaction (efp; at 2×10^−5 M): potent inhibitor
3 | CC[C@H]1OC(=O)[C@H](C)[C@@H](O[C@H]2C[C@@](C)(OC)[C@@H](O)[C@H](C)O2)[C@H](C)[C@@H](O[C@@H]2O[C@H](C)C[C@H](N(C)C)[C@H]2O)[C@](C)(O)C[C@@H](C)C(=O)[C@H](C)[C@@H](O)[C@]1(C)O [Erythromycin] | – | – | – | effect on the efp reaction (efp; at 5×10^−5): no apparent effect
4 | C=C(NC(=O)C(=C)NC(=O)c1csc(C2=N[C@@H]3c4csc(n4)[C@H]4NC(=O)c5csc(n5)[C@H]([C@](C)(O)[C@@H](C)O)NC(=O)[C@H]5CSC(=N5)/C(=C/C)NC(=O)[C@H]([C@@H](C)O)NC(=O)c5csc(n5)[C@]3(CC2)NC(=O)[C@H](C)NC(=O)C(=C)NC(=O)[C@H](C)NC(=O)[C@H]([C@@H](C)CC)N[C@@H]2C=Cc3c([C@H](C)O)cc(nc3[C@H]2O)C(=O)O[C@@H]4C)n1)C(N)=O [thiostrepton] | inhibit only about 20% or have no effect | no effect | no effect | –
5 | neomycin | inhibit only about 20% or have no effect | no effect | no effect | –
